These results are taken from ChEMBL document CHEMBL2151015, “Discovery of a potent, selective, and orally bioavailable acidic 11β-hydroxysteroid dehydrogenase type 1 (11β-HSD1) inhibitor: discovery of 2-[(3S)-1-[5-(cyclohexylcarbamoyl)-6-propylsulfanylpyridin-2-yl]-3-piperidyl]acetic acid (AZD4017)” (J Med Chem, 2012).

Values after ≈ are worked out from the molar mass of the structure shown.

Data set [1] is described as follows: Oral bioavailability in rat. The note with it: in vivo. The class given is ADME, organism-based.
A short description of data set [2]: in vivo. The note with it: rat.
A short description of data set [3]: Intrinsic clearance in rat hepatocytes assessed per 10^6 cells.
The nature of data set [4]: Octanol-buffer partition coefficient, log D of the compound after 30 mins by shake flask method at pH 7.4.
Data set [5] in a line: Fraction unbound in rat plasma after 18 to 19 hrs by equilibrium dialysis. The class given is ADME, cell-free.
Data set [6] is described as follows: Apparent permeability across human Caco2 cells. It counts as ADME, cell-based. The note with it: Caco-2.
Data set [7] is described as follows: Cmax in po dosed Sprague-Dawley rat pre-dosed with ABT administered 2 hrs […] measured up to 24 hrs. It counts as ADME, organism-based. Details: route oral. Particulars: in vivo.
Data set [8] in a line: Aqueous solubility of the compound after 24 hrs by LC-UV analysis at pH 7.4. The note with it: aqueous medium. It counts as physicochemical.
Data set [9] is described as follows: AUC (0 to t) in po dosed Sprague-Dawley rat measured up to 24 hrs. It counts as ADME, organism-based. Particulars: plasma. Details: time < 24 hr, route oral.
Data set [10] can be described thus: AUC (0 to t) in po dosed Sprague-Dawley rat pre-dosed with ABT administered 2 hrs […] measured up to 24 hrs. It counts as ADME, organism-based. Details: time < 24 hr, route oral. Particulars: plasma.
Data set [11] can be described thus: Cmax in po dosed Sprague-Dawley rat measured up to 24 hrs. It counts as ADME, organism-based. Details: route oral. The note with it: in vivo.
For data set [12], the target named is 11-beta-hydroxysteroid dehydrogenase 1 (Homo sapiens, UniProt P28845). As to the kind of experiment: biochemical.
Sequence of 11-beta-hydroxysteroid dehydrogenase 1 (P28845 whole entry): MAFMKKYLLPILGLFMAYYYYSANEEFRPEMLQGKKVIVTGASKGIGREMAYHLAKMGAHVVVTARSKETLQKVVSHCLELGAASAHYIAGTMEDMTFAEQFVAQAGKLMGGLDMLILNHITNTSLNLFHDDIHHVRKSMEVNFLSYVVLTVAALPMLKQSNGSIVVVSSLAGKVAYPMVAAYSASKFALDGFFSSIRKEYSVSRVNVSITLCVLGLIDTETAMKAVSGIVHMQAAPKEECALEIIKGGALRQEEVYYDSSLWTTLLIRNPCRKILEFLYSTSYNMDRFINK
Description: Inhibition of N-terminal His6-tagged full length human 11betaHSD1 expressed in baculovirus infected cells using cortisone as substrate after 25 mins by HTRF assay
A short description of data set [13]: Clearance in po dosed Sprague-Dawley rat measured up to 24 hrs. The note with it: in vivo.
The nature of data set [14]: Clearance in po dosed Sprague-Dawley rat pre-dosed with ABT administered 2 hrs prior to ABT administration measured up to 24 hrs. Particulars: in vivo.

Regarding `CCCSc1ncccc1C(=O)N[C@@H]1[C@@H]2CC3C[C@H]1C[C@@](O)(C3)C2`, the bioavailability in data set [1] was 11%. This compound showed a clearance in data set [2] of 110 mL/min/kg. In data set [3], the intrinsic metabolic clearance (hepatocyte CLint) was 49 µL/min/1e6 cells. Further, in data set [4] (octanol/buffer), the logD at 0.5 h amounted to 2.3. Moreover, the fraction unbound in [5] is above 0.5.

In turn, `CCCSc1ncccc1C(=O)N(C)[C@@H]1[C@@H]2CC3C[C@H]1C[C@@](O)(C3)C2` yielded a bioavailability in data set [1] of 0%. For the same compound, the clearance in data set [2] worked out at 24 mL/min/kg. Moreover, the hepatocyte CLint in data set [3] came to 140 µL/min/1e6 cells. The logD at 0.5 h in data set [4] (octanol/water) came to 2.5. Besides, in [5], the fraction unbound was 0.2.

Take `CCCSc1nc(N2CCCC(C(=O)O)C2)ccc1C(=O)NC1CCCCC1` (stereo not given): the bioavailability in data set [1] came out at 45%. This compound gave a clearance in data set [2] of 4 mL/min/kg. The compound further displayed an intrinsic clearance (hepatocyte CLint) in data set [3] of 6 µL/min/1e6 cells. This compound also yielded a logD at 0.5 h in data set [4] (octanol/buffer) of 1.7. In data set [5], this compound registered a fraction unbound of 0.023.

In turn, `CCCSc1nc(Oc2cccc(CCC(=O)O)c2)ccc1C(=O)NC1CCCCC1` returned a hepatocyte CLint in data set [3] of 15 µL/min/1e6 cells. This compound showed a logD at 0.5 h in data set [4] (octanol/buffer) of 1.7. In data set [5], this compound returned an unbound share (fraction unbound) of 0.006.

`CCCOc1nc(N2CCC[C@@H](CC(=O)O)C2)ccc1C(=O)NC1CCCCC1`: the bioavailability in [1] is above 100%. This compound also registered a clearance in data set [2] of 9 mL/min/kg. This compound yielded a hepatocyte CLint in [3] of 9 µL/min/1e6 cells. Further, in data set [4] (octanol/buffer), the logD at 0.5 h stood at 2.8. In addition, in data set [5], the fraction unbound was 0.006.

Regarding `CCCSc1nc(N2CCCCC2C(=O)O)ccc1C(=O)NC1CCCCC1` (stereo not given), in data set [1], the bioavailability was above 100%. This compound showed a clearance in [2] of 12 mL/min/kg. For the same compound, the hepatocyte CLint in data set [3] worked out at 10 µL/min/1e6 cells. The same compound yielded a logD at 0.5 h in data set [4] (octanol/buffer) of 1.4. The compound also yielded a fraction unbound in data set [5] of 0.019.

With `CCCSc1ncccc1C(=O)NC1CCC(F)(F)CC1`, the bioavailability in [1] is 0%. For the same compound, the clearance in data set [2] was 30 mL/min/kg. This compound also returned a hepatocyte CLint in data set [3] of 130 µL/min/1e6 cells. This compound yielded a fraction unbound in [5] of 0.29.

For the compound `CCCSc1nc(N2CCC(CC(=O)O)CC2)ccc1C(=O)NC1CCCCC1`, the bioavailability in data set [1] amounted to 90%. The clearance in [2] came out at 4 mL/min/kg. The compound also yielded a hepatocyte CLint in data set [3] of 6 µL/min/1e6 cells. This compound gave a logD at 0.5 h in data set [4] (octanol/buffer) of 2. In data set [5], the fraction unbound worked out at 0.032.

`CCCN(C)c1nc(N2CCC[C@@H](CC(=O)O)C2)ccc1C(=O)NC1CCCCC1`: in data set [1], the bioavailability was found to be 39%. For the same compound, the clearance in [2] worked out at 15 mL/min/kg. In data set [3], the intrinsic clearance (hepatocyte CLint) amounted to 12 µL/min/1e6 cells. Also, in [4] (octanol/water), the logD at 0.5 h stood at 2.3. The same compound returned a fraction unbound in data set [5] of 0.018.

On to `CCCSc1nc(N2CCC(C(=O)O)CC2)ccc1C(=O)NC1CCCCC1`, for which the bioavailability in data set [1] is above 100%. This compound had a clearance in [2] of 8 mL/min/kg. The compound also yielded a hepatocyte CLint in [3] below 2 µL/min/1e6 cells. For the same compound, the logD at 0.5 h in data set [4] (octanol/water) came to 1.6. The same compound showed a fraction unbound in [5] of 0.03.

In data set [1], `CCCSc1nc(N[C@H]2CC[C@H](C(=O)O)CC2)ccc1C(=O)NC1CCCCC1` had a bioavailability above 100%. Moreover, the clearance in data set [2] was determined as 6 mL/min/kg. Also, the hepatocyte CLint in [3] is below 2 µL/min/1e6 cells. In data set [5], this compound returned a fraction unbound of 0.029.

Take `CCCSc1ncccc1C(=O)NC1CCCCC1`: the Papp in [6] came out at 27 ×10⁻⁶ cm/s. Also, the Cmax in data set [7] was determined as 514 ng/mL; in [11] it was 39 ng/mL. In [1], this compound showed a bioavailability of 0%. In addition, in data set [8], the concentration in solution (solubility at 24 h) was 82 µM (≈ 22.8 µg/mL). The AUC(0-t) at 24 h in [9] is 80 ng·h/mL; in data set [10], 2510 ng·h/mL. The same compound came in with a logD at 0.5 h in [4] (octanol/buffer) of 3.2. Also, in [5], the fraction unbound worked out at 0.13.

Compound `CCCSc1ncccc1C(=O)N[C@H]1CC[C@@H](C(=O)O)CC1` returned an IC50 in data set [12] above 30 µM. In addition, the bioavailability in [1] is 81%. Also, the clearance in [2] came to 2.5 mL/min/kg. Also, the hepatocyte CLint in data set [3] was below 2 µL/min/1e6 cells. Also, the logD at 0.5 h in [4] (octanol/buffer) was below 0.5. The compound further returned a fraction unbound in data set [5] of 0.41.

Take `CCCNc1nc(N2CCC[C@@H](CC(=O)O)C2)ccc1C(=O)NC1CCCCC1`: in data set [1], the bioavailability was found to be 72%. In data set [2], this compound showed a clearance of 4 mL/min/kg. For the same compound, the hepatocyte CLint in data set [3] was determined as 7 µL/min/1e6 cells. In addition, the logD at 0.5 h in data set [4] (octanol/buffer) is 2.3. The compound also displayed a fraction unbound in [5] of 0.029.

As to `CCCSc1ncccc1C(=O)N(C)C1CCCCC1`, in [1], the bioavailability amounted to 0%. Further, the clearance in [2] was 48 mL/min/kg. For the same compound, in [3], the hepatocyte CLint was above 350 µL/min/1e6 cells. Moreover, the logD at 0.5 h in data set [4] (octanol/buffer) stood at 3.4. This compound had a fraction unbound in data set [5] of 0.1.

For the compound `CCCSc1nc(Oc2ccc(CC(=O)O)cc2)ccc1C(=O)NC1CCCCC1`, the hepatocyte CLint in data set [3] was below 2 µL/min/1e6 cells. Moreover, the logD at 0.5 h in data set [4] (octanol/buffer) came out at 1.8. The fraction unbound in [5] came out at 0.003.

Compound `CCCSc1nc(N2CCC[C@H](CC(=O)O)C2)ccc1C(=O)NC1CCCCC1` gave a bioavailability in data set [1] of 79%. In addition, the clearance in data set [2] was found to be 1 mL/min/kg. The hepatocyte CLint in data set [3] is 8 µL/min/1e6 cells. Besides, the logD at 0.5 h in data set [4] (octanol/buffer) was determined as 2.2. This compound showed a fraction unbound in data set [5] of 0.006.

Take `O=S(=O)(Cc1c(F)cccc1F)N1CCN(c2ncccc2C(F)(F)F)CC1`: the Papp in data set [6] was 10 ×10⁻⁶ cm/s. In addition, the bioavailability in data set [1] stood at 0%. The same compound gave a CL/F at 24 h in [13] of 20 mL/min/kg. The solubility at 24 h in [8] is 2 µM (≈ 0.843 µg/mL). The compound further displayed a hepatocyte CLint in data set [3] of 272 µL/min/1e6 cells. Besides, in [4] (octanol/buffer), the logD at 0.5 h was determined as 3.9. In data set [5], the fraction unbound amounted to 0.005. The same compound came in with a CL/F in [14] of 14 mL/min/kg.

For the compound `CCCSc1ncccc1C(=O)N(C)C1CCOCC1`, the bioavailability in data set [1] was found to be 0%. This compound yielded a clearance in data set [2] of 46 mL/min/kg. Also, the hepatocyte CLint in [3] turned out to be 90 µL/min/1e6 cells. The compound further displayed a logD at 0.5 h in data set [4] (octanol/buffer) of 1.6. The fraction unbound in [5] is 0.49.

For `CCCSc1ncccc1C(=O)N(C)[C@H]1[C@@H]2CC3C[C@H]1C[C@@](O)(C3)C2`, in data set [3], the hepatocyte CLint is 140 µL/min/1e6 cells. Besides, the pH-dependent lipophilicity (logD) at 0.5 h in [4] (octanol/water) was found to be 2.5. Moreover, in data set [5], the fraction unbound came to 0.41.

With `CCCSc1nc(NC[C@H]2CC[C@H](C(=O)O)CC2)ccc1C(=O)NC1CCCCC1`, in data set [1], the bioavailability is 81%. For the same compound, the clearance in [2] was determined as 8 mL/min/kg. Besides, in data set [3], the hepatocyte CLint was 8 µL/min/1e6 cells. Further, in [4] (octanol/buffer), the logD at 0.5 h is 2.6. In [5], this compound yielded a fraction unbound of 0.015.

Compound `CCCCc1nc(N2CCC[C@@H](CC(=O)O)C2)ccc1C(=O)NC1CCCCC1` had a bioavailability in [1] of 57%. This compound also gave a clearance in data set [2] of 4 mL/min/kg. The hepatocyte CLint in data set [3] was below 2 µL/min/1e6 cells. The logD at 0.5 h in [4] (octanol/buffer) amounted to 1.6. Further, in data set [5], the fraction unbound worked out at 0.06.

For `CCCSc1ncccc1C(=O)N1CCCC1c1ccncc1` (stereo not given), the bioavailability in data set [1] came out at 0%. This compound came in with a clearance in data set [2] of 39 mL/min/kg. The hepatocyte CLint in [3] was found to be 120 µL/min/1e6 cells. Also, in [4] (octanol/buffer), the logD at 0.5 h stood at 2. This compound showed a fraction unbound in data set [5] of 0.13.
